# Source: article PMC9289467, “A Novel Multifunctional 5,6-Dimethoxy-Indanone-Chalcone-Carbamate Hybrids Alleviates Cognitive Decline in Alzheimer’s Disease by Dual Inhibition of Acetylcholinesterase and Inflammation” (Frontiers in Aging Neuroscience, 2022)
# How the values were obtained:
# Aβ40 oligomers = target: T1, Aβ40 oligomers (Homo sapiens, UniProt P05067); assay: Aβ40 self-oligomerization dot blot (A11 antibody); format: biochemical; settings: oligomer-specific antibody A11
# T1 construct: purchased Invitrogen 03-136
# Procedure: The formation of Aβ40 or Aβ42 oligomers was monitored by dot blot with oligomer-specific antibody. Briefly, the resulting Aβ film was dissolved in ddH2O to form a 100 μM solution, and then the oligomerization reaction ([Kayed et al., 2003]) was initiated in absence or presence of different concentrations of AP5. An aliquot (2 μL) of each solution was dripped on a nitrocellulose membrane. The membrane was blocked with 5% non-fat milk in TBS for 1 h, incubated with the anti-β amyloid (MOAB-2, NBP2-13075SS, Novus Biologicals, Colorado, United States), anti-amyloid oligomers (A11, NBP1-97930, Novus Biologicals), or anti-amyloid fibrils (OC, NBP1-97930, Novus Biologicals) antibodies overnight at 4°C. The membrane was then incubated using HRP-conjugated secondary antibodies at room temperature for 1 h and then developed with ECL.
# [1] = system: spatial learning and memory; assay: Morris water maze; format: in vivo, APP/PS1 mice; settings: after 5 months of treatment
# Procedure: (§1) APP/PS1 mice of ages 6 months were randomly divided into vehicle (APP/PS1, n = 10) and treatment groups (AP5, n = 10), which were intragastrically administered with AP5 (40 mg/kg) once daily for consecutive 5 months. AP5 was dissolved in distilled water containing 1% sodium carboxymethyl cellulose.
# To investigate whether AP5 treatment plays a key role in cognition improvement of APP/PS1 mice models, the five different behavioral tests were sequentially carried out in the following order: open field, novel object recognition task, spatial object-location task, Y-maze, and Morris water maze (MWM). AP5 was also administered daily during the test periods. A set of video analysis systems (TopScan, CleverSys, United States) was used throughout the behavioral tests. […]
# the familiar object) / total exploration time for the novel and familiar object.
# For the spatial object location task (an object moved to a new location), mice first explored the two objects placed in two corners of the open field for 5 min in training period. After 1 h or 24 h, the mice received a 5 min retention trial with a new spatial configuration with an object moved from one corner to the opposite corner of the open field.The discrimination index was calculated and defined as: (time spent exploring the displaced object-time spent exploring nondisplaced objects) / total exploration time for the two objects during the 5 min retention trial.
# Work on spatial recognition memory was tested by Y-maze. The symmetrical Y-maze consisted of three arms joined in the middle to form a Y shape. […] The ratio between the distance spent in the novel arm and the totaldistance travelled in the maze was quantified as preference index. […]
# guided to platform and allowed to stay on it for 30 s. The time (escape latency) for each mouse to find the way and reach the target platform was analyzed. […] The parameters measured during the probe trialincluded number of platform crossing and time spent in the target quadrant. […]
# C3 within astrocytes = assay: C3 and GFAP co-immunostaining (A1 astrocyte marker); format: in vivo; settings: AP5-treated vs APP/PS1 mice
# Procedure: as §1
# The fixed hemibrains were paraffin-embedded and sectioned in the coronal plane. The slices were deparaffinized with xylene and rehydrated by a series of gradient alcohols. Antigen retrieval through microwave boiling was performed with 10 mM sodium citrate solution at pH 6.0. The slices were cooled down to room temperature and then rinsed in PBS solution. […]
# (1:100, BAF2655, R&D, Minneapolis, MN, USA). […] For the quantification of Aβ plaque-associated microglia and astrocyte, Iba1- and GFAP-immunopositive cells around plaques were counted. On each slide, ten plaques were randomly determined and the microglia (nuclei) in the immediate vicinity (two times the plaque diameter) of each plaque were counted. For colocalization of PSD95 and synaptophysin, images were analyzed with the puncta analyzer plugin with a minimum pixel specification of 4 in Image Jand thresholding was consistent for every image. […]
# anti-synaptophysin (1:1000, 67864-1-lg, Proteintech) overnight at 4°C. […] Densitometric analysis was performed using Quantity One software (Bio-Rad, Berkeley, CA, USA). […]
# T1 sequence (P05067 672-711 limits assumed): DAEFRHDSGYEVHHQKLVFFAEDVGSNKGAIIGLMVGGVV
structure (smiles),measurement,setting,value
"CCN(C)C(=O)Oc1cccc(/C=C2\Cc3cc(OC)c(OC)cc3C2=O)c1 [AP5, (E)-3-((5,6-dimethoxy-1-oxo-1,3-dihydro-2H-inden-2-ylidene)-methyl)phenylethyl(methyl)carbamate]",levels of oligomeric Aβ40,Aβ40 oligomers,decreased the levels
same,platform crossing number,[1]; MWM probe trial,performed much better
same,time spent in the target quadrant,[1]; MWM probe trial,performed much better
same,escape latency,[1]; MWM,performed much better
same,C3-positive area within the astrocytes,C3 within astrocytes,markedly reduced
